Assay results reported in ChEMBL document CHEMBL1806496, “Nothospondin, a new AP-1 inhibitory quassinoid from the Cameroonian plant Nothospondias staudtii” (Bioorg Med Chem Lett, 2011).

Tests used:
[1] = target: Transcription factor Jun (Homo sapiens, UniProt P05412); assay: Inhibition of TPA-induced AP-1 activity expressed in human HEK293T cells treated 1 hr before TPA challenge measured after 18 hrs by FRET based beta-lactamase reporter assay; type: cell-based, HEK-293T; settings: for inhibition: HEK-293T
[2] = tested on: HEK-293T; assay: Cytotoxicity against human HEK293T cells expressing AP-1 at 80 uM after 18 hrs by XTT assay; type: cell-based
[3] = tested on: HEK-293T; assay: Cytotoxicity against human HEK293T cells expressing AP-1 after 18 hrs by XTT assay; type: cell-based

Chain of Transcription factor Jun (P05412 whole entry): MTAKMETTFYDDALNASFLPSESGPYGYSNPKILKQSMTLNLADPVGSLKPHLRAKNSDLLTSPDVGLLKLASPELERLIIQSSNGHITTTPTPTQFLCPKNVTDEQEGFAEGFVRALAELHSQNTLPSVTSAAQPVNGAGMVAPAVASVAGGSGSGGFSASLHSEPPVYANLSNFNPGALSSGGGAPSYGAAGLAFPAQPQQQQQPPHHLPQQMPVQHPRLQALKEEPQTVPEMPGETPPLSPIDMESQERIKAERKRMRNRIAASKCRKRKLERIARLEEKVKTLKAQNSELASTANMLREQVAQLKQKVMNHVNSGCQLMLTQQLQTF

CC[C@](C)(O)C(=O)O[C@H]1C(=O)O[C@@H]2C[C@H]3C(C)=CC(=O)[C@@H](O)[C@]3(C)[C@H]3[C@@]4(O)OC[C@]32[C@@H]1[C@@H](C)[C@H]4O [GLAUCARUBINONE]
EC50 [1]: 130 nM | inhibition [1]: Dose-dependent effect | Activity [2]: Non-toxic

COC1=C(C)[C@@H]2CC(=O)O[C@@H]3C[C@H]4[C@H](C)[C@@H](O)[C@H](O)C(=O)[C@]4(C)[C@@H](C1=O)[C@@]32C [NOTHOSPONDIN]
IC50 [3]: 10000 nM | EC50 [1]: 1490 nM | inhibition [1]: Dose-dependent effect
